From US8114991B2, “Amino-1,3,5-triazines N-substituted with chiral bicyclic radicals, process for their preparation, compositions thereof, and their use as herbicides and plant growth regulators” (Bayer Cropscience AG, priority 2003, dated 2012)

Tests used:
[1] = system: harmful plants such as Stellaria media, Lolium multiforum, Amaranthus retroflexus, Sinapis alba, Avena sativa and Setaria viridis; assay: Pre-emergence effect on weeds (greenhouse pot test); assay type: in vivo; details: application rate of 1 kg or less of active ingredient per hectare; scored after 3 to 4 weeks by comparison with untreated controls
From the text: Seeds or rhizome pieces of monocotyledonous and dicotyledonous weed plants were placed in sandy loam in plastic pots and covered with soil. The compounds according to the invention, which were formulated in the form of wettable powders or emulsion concentrates, were then applied to the surface of the soil cover as aqueous suspension or emulsion at various dosages with an application rate of 600 to 800 l of water per ha (converted).
After the treatment, the pots were placed into a greenhouse and kept under good growth conditions for the weeds. The plant or emergence damage was scored visually after the test plants have emerged after an experimental time of 3 to 4 weeks by comparison with untreated controls.

[2] = system: harmful plants such as Sinapis alba, Echinochloa crus-galli, Lolium multiflorum, Stellaria media, Cyperus iria, Amaranthus retroflexus, Setaria viridis, Avena …; assay: Post-emergence effect on weeds (greenhouse pot test); assay type: in vivo; details: application rate of 2 kg or less of active ingredient per hectare; treated in the three-leaf stage; scored after approx. 3 to 4 weeks by comparison with untreated controls

| SMILES | pre-emergence control of harmful plants (plant or emergence damage scored visually) [1] | herbicidal post-emergence activity against harmful plants (scored visually) [2] |
| --- | --- | --- |
| CCc1nc(N)nc(N[C@@H]2CCOc3c2ccc(C)c3C)n1 [Compound 8.242] | very good pre-emergence control | very good herbicidal post-emergence activity |
| CCc1nc(N)nc(N[C@@H]2CCc3ccc(F)cc32)n1 [Compound 8.26] | very good pre-emergence control | very good herbicidal post-emergence activity |
| Cc1ccc2c(c1)[C@H](Nc1nc(N)nc(C(C)C)n1)CC2 [Compound 8.67] | very good pre-emergence control | very good herbicidal post-emergence activity |
| CCc1ccc2c(c1)[C@H](Nc1nc(N)nc(CCSC(F)(F)F)n1)CC2 [Compound 8.250] | very good pre-emergence control | very good herbicidal post-emergence activity |
| COCc1nc(N)nc(N[C@@H]2CCc3ccccc32)n1 [Compound 8.233] | very good pre-emergence control | very good herbicidal post-emergence activity |
| Cc1cc2c(cc1C)[C@H](Nc1nc(N)nc(C(C)(C)F)n1)CC2 [Compound 8.201] | very good pre-emergence control | very good herbicidal post-emergence activity |
| C[C@@H](Cl)c1nc(N)nc(N[C@@H]2CCCc3ccccc32)n1 [Compound 1.28] | very good pre-emergence control | very good herbicidal post-emergence activity |
| CCc1ccc2c(c1)[C@H](Nc1nc(N)nc(C(C)C)n1)CC2 [Compound 8.247] | very good pre-emergence control | very good herbicidal post-emergence activity |
| CCCc1nc(N)nc(N[C@H]2c3ccccc3C[C@@H]2C)n1 [Compound 7.47] | very good pre-emergence control | very good herbicidal post-emergence activity |
| CCC(F)c1nc(N)nc(N[C@@H]2CCc3ccc(C)cc32)n1 (stereo partly drawn) [Compound 10.37] | very good pre-emergence control | very good herbicidal post-emergence activity |
| CCCc1nc(N)nc(N[C@@H]2CCOc3c(F)cccc32)n1 [Compound 8.240] | very good pre-emergence control | very good herbicidal post-emergence activity |
| C[C@H]1Cc2ccccc2[C@@H]1Nc1nc(N)nc(CCSC(F)(F)F)n1 [Compound 7.241] | very good pre-emergence control | very good herbicidal post-emergence activity |
| C[C@H]1Cc2ccccc2[C@@H]1Nc1nc(N)nc(CC#N)n1 [Compound 7.242] | very good pre-emergence control | very good herbicidal post-emergence activity |
| CCCc1nc(N)nc(N[C@H]2c3ccccc3CC[C@@H]2C)n1 [Compound 7.57] | very good pre-emergence control | very good herbicidal post-emergence activity |
| Nc1nc(N[C@@H]2CCc3ccccc32)nc(C2(F)CC2)n1 [Compound 8.160] | very good pre-emergence control | very good herbicidal post-emergence activity |
| Nc1nc(CCl)nc(N[C@@H]2CCc3ccccc32)n1 [Compound 8.113] | very good pre-emergence control | very good herbicidal post-emergence activity |
| CC(C)(F)c1nc(N)nc(N[C@@H]2CCc3ccc(F)cc32)n1 [Compound 8.197] | very good pre-emergence control | very good herbicidal post-emergence activity |
| CC1(c2nc(N)nc(N[C@@H]3CCc4ccccc43)n2)CC1 [Compound 8.148] | very good pre-emergence control | very good herbicidal post-emergence activity |

| SMILES | pre-emergence control of harmful plants (plant or emergence damage scored visually) [1] | herbicidal post-emergence activity against harmful plants (scored visually) [2] |
| --- | --- | --- |
| Cc1ccc2c(c1)[C@H](Nc1nc(N)nc(C(C)(C)F)n1)CCO2 [Compound 8.215] | very good pre-emergence control | very good herbicidal post-emergence activity |
| C[C@H](F)c1nc(N)nc(N[C@@H]2CCCc3ccccc32)n1 [Compound 3.11] | very good pre-emergence control | very good herbicidal post-emergence activity |
| Cc1nc(N)nc(N[C@H]2c3ccccc3CC[C@@H]2C)n1 [Compound 7.11] | very good pre-emergence control | very good herbicidal post-emergence activity |
| Cc1ccc2c(c1)[C@H](Nc1nc(N)nc(C(C)C)n1)CCO2 [Compound 8.75] | very good pre-emergence control | very good herbicidal post-emergence activity |
| N#CCc1nc(N)nc(N[C@@H]2CCCc3ccccc32)n1 [Compound 8.255] | very good pre-emergence control | very good herbicidal post-emergence activity |
| Cc1nc(N)nc(N[C@H]2c3cc(F)ccc3C[C@@H]2C)n1 [Compound 7.3] | very good pre-emergence control | very good herbicidal post-emergence activity |
| CCC(F)c1nc(N)nc(N[C@@H]2CCOc3ccc(C)cc32)n1 (stereo partly drawn) [Compound 10.57] | very good pre-emergence control | very good herbicidal post-emergence activity |
| C[C@H]1Cc2ccccc2[C@@H]1Nc1nc(N)nc(C(F)F)n1 [Compound 7.244] | very good pre-emergence control | very good herbicidal post-emergence activity |
| COc1ccc2c(c1)[C@H](Nc1nc(N)nc(C(C)(C)F)n1)CC2 [Compound 8.243] | very good pre-emergence control | very good herbicidal post-emergence activity |
| CCCc1nc(N)nc(N[C@H]2c3cc(C)ccc3C[C@@H]2C)n1 [Compound 7.48] | very good pre-emergence control | very good herbicidal post-emergence activity |
| Cc1ccc2c(c1)CC(C)C2Nc1nc(N)nc(C(C)F)n1 (stereo not drawn) [Compound 4.2] | very good pre-emergence control | very good herbicidal post-emergence activity |
| CCc1nc(N)nc(N[C@@H]2CCOc3c(F)cccc32)n1 [Compound 8.239] | very good pre-emergence control | very good herbicidal post-emergence activity |
| CCc1nc(N)nc(N[C@@H]2CCc3ccccc32)n1 [Compound 8.24] | very good pre-emergence control | very good herbicidal post-emergence activity |
| Cc1ccc2c(c1)C(Nc1nc(N)nc(C(F)C#N)n1)C(C)C2 (mixture of isomers) [Compound 7.243] | very good pre-emergence control | very good herbicidal post-emergence activity |
| C[C@H](F)c1nc(N)nc(N[C@H]2c3ccccc3C[C@@H]2C)n1 [Compound 4.1] | very good pre-emergence control | very good herbicidal post-emergence activity |
| CCCCc1nc(N)nc(N[C@H]2c3cc(C)ccc3C[C@@H]2C)n1 [Compound 9.66] | very good pre-emergence control | very good herbicidal post-emergence activity |
| CCc1nc(N)nc(N[C@H]2c3ccccc3CC[C@@H]2C)n1 [Compound 7.78] | very good pre-emergence control | very good herbicidal post-emergence activity |
| Cc1ccc2c(c1)[C@H](Nc1nc(N)nc([C@@H](C)Cl)n1)[C@@H](C)CC2 [Compound 2.28] | very good pre-emergence control | very good herbicidal post-emergence activity |
